Assay results as given in patent US11884647B2, “Compounds and methods for targeting pathogenic blood vessels” (THE REGENTS OF THE UNIVERSITY OF CALIFORNIA, priority 2019, dated 2024).

Key:
[1] = tested on: tumor endothelial cells (LL/2 lung cancer tumor); test: Lung LL2 ex vivo model of tumor angiogenesis; format: cell-based, mouse; conditions: for Cell death: Lung LL2 ex vivo, drug treatment two days; for cytotoxicity at 20 µM / cytotoxicity at 40 µM: Mus musculus, Endothelial cell, 48 h, read-out: Cell death
How it was run: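 Mouse LL2 tumor fragments (~0.5×0.5×0.3 mm) embedded in Matrigel and grown in endothelial growth medium at 37° C until endothelial outgrowth (about 4 days) before drug treatment. About 48 h after drug addition, stained 10 min with fluorescein diacetate/propidium iodide; live (green) and dead (red) cells imaged at 2× with fixed channel settings.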

[2] = tested on: tumor endothelial cells (CT26.CL25 colon cancer tumor); test: Colon CT26 ex vivo model of tumor angiogenesis; format: cell-based; conditions: Mus musculus, CT26, 48 h, read-out: Cell death
Protocol: This example describes a procedure to prepare a primary tumor angiogenesis model for assessing the efficacy of anti-cancer candidate agents.
1. The day before the experiment, spray all necessary tools with 70% ethanol and sterilize them under UV light overnight, including blade, dissecting and micro-dissecting scissors and […]. Place 24-well dishes at 4° C. to pre-chill plates and thaw Matrigel 24 hours before tumor dissection.
2. Spray 70% ethanol on working bench. Prepare two sterile petri dishes with 10 mL sterile PBS. Steps 3 and 4 are for mouse tumor models. For fresh human tumor, directly go to step 5.
3. Euthanize the tumor-bearing mice. Spray 70% ethanol on the mouse and remove the tumor using sterilized dissecting tools (avoid the fur). Rinse the tumor in petri dish with sterile PBS to remove ethanol and fur. Transfer the tumor to a new petri dish with PBS for dissection. Place the dish on ice.
4. Using pre-chilled sterile pipet tips to seed regular Matrigel in 24 well plates on ice. Matrigel (30 μL) is dropped in the middle of each well without touching the edge of the well (avoid introducing bubbles if possible).
5. Cut the tumor in halves using the sterile blade. Identify and isolate healthy tumor tissue that is not necrotic and is within the tumor capsule. Cut the healthy tumor tissue into small pieces. For instance, a suitable size for the tumor tissue is 0.5 mm (H)×0.5 mm (L)×0.3 mm (D) with a total volume of 0.075 mm^3.
6. Gently transfer and embed each tumor piece in the Matrigel drop in the 24-well plate. Place the embedded piece in the bottom and middle of each Matrigel drop. Keep the plate on ice all the time.
7. After seeding the tumor pieces, plates are incubated in a 37° C. cell culture incubator without medium for 10 minutes in order for the Matrigel to solidify.
8. Endothelial Growth Medium (0.5 mL) is added to each well and incubated at 37° C. with 5% CO2. Wait until the new endothelial cells have grown out of the tumor or are larger than 3 mm in diameter until treatment. This usually takes 4 days for the LL2 Lewis lung cancer model and 7 days for the CT26 colon cancer model. For human tumor models, the growth time is typically 2-3 weeks, depending on the tumor type. Media is changed every 4 days during prolonged culture. Typically, when the tumor tissue grows to 2 mm in diameter, it is good for drug testing. A size of about 3 mm in diameter can make visualization easier.
9. When the assay is ready to be analyzed for cell death (e.g., 48 hours after drug addition), prepare the dye mixture by mixing 6 μL of green dye to stain live cells (5 mg/mL Fluorescein diacetate or FDA in DMSO) with 30 μL of red dye (2.5 mg/mL Propidium iodide or PI in PBS) to stain dead cells in an Eppendorf tube. The FDA dye needs to be stored frozen in a −20° C. freezer because it has a labile ester bond.
10. Add 1 μL of the dye mixture to each well of the 24-well dish. It is usually performed one 24-well dish at a time given the amount of time needed to take pictures (the green dye is not as stable in the cells in the long term).
11. Gently rock the dish a few times to mix the dye with the media in the wells and incubate the dish at 37° C. for 10 min (too long incubation can make the green signal too intense).
12. Wash each well with 0.5 mL of sterile PBS and then add 0.5 mL of phenol red free SFM to each well. Alternatively 0.5 mL of regular Endothelial Cell Growth Media can be added to each well if this well needs to be continuously maintained after the experiment.
13. Look through all wells on an inverted microscope using the 2× objective lens to observe morphological changes.
14. Taking pictures in the red and green channels would allow not only the recording of the result but also more accurate quantitation of the result. To take pictures for all the wells, first pick a well that has robust red and green signals. […]

Row | SMILES | cytotoxicity at 40 µM [2] | cytotoxicity at 40 µM [1] | further results
1 | CCCCN(CCCC)c1c(S(=O)(=O)c2ccc(OC)cc2)cnc2ccc(C(=O)OCC)cc12 [compound 155, ethyl 4-(dibutylamino)-3-((4-methoxyphenyl)sulfonyl)quinoline-6-carboxylate] | 20% | – | Cell death ([1]; Conc. 40 μm): 80%
2 | COc1ccc(S(=O)(=O)c2cnc3ccc(OC(F)(F)F)cc3c2-n2cncn2)cc1OC [compound 89, 3-((3,4-dimethoxyphenyl)sulfonyl)-4-(1H-1,2,4-triazol-1-yl)-6-(trifluoromethoxy)quinoline] | – | – | cytotoxicity at 20 µM [1]: 100%; cytotoxicity at 10 µM [2]: 100%
3 | COc1ccc(S(=O)(=O)c2cnc3ccc(OC(F)(F)F)cc3c2N2CCC(O)CC2)cc1OC [compound 58, 1-(3-((3,4-dimethoxyphenyl)sulfonyl)-6-(trifluoromethoxy)quinolin-4-yl)piperidin-4-ol] | 50% | 50% | –
4 | CCCCCCCOc1ccc(S(=O)(=O)c2cnc3ccc(SC)cc3c2N2CCCN(C)CC2)cc1 [compound 218, 3-((4-(heptyloxy)phenyl)sulfonyl)-4-(4-methyl-1,4-diazepan-1-yl)-6-(methylthio)quinoline] | 90% | 100% | –
5 | O=S(=O)(c1ccc(OC(F)(F)F)cc1)c1cnc2ccc(OC(F)(F)F)cc2c1-n1cncn1 [compound 91, 4-(1H-1,2,4-triazol-1-yl)-6-(trifluoromethoxy)-3-((4-(trifluoromethoxy)phenyl)sulfonyl)quinoline] | – | – | Cell death ([1]; Conc. 20 μm): 80%; cytotoxicity at 10 µM [2]: 100%
6 | CCCCOc1ccc(S(=O)(=O)c2cnc3ccc(C(=O)N(CC)CC)cc3c2N2CCC(N3CCCCC3)CC2)cc1 [compound 201, 4-([1,4′-bipiperidin]-1′-yl)-3-((4-butoxyphenyl)sulfonyl)-N,N-diethylquinoline-6-carboxamide] | 10% | 30% | –
7 | CCCCOc1ccc(S(=O)(=O)c2cnc3ccc(C(=O)NCCO)cc3c2N2CCC(N3CCCCC3)CC2)cc1 [compound 202, 4-([1,4′-bipiperidin]-1′-yl)-3-((4-butoxyphenyl)sulfonyl)-N-(2-hydroxyethyl)quinoline-6-carboxamide] | 10% | – | Cell death ([1]; Conc. 40 μm): 30%
8 | CCCCCCCOc1ccc(S(=O)(=O)c2cnc3ccc([S+](C)[O-])cc3c2N2CCC(N3CCCCC3)CC2)cc1 (stereo not shown) [compound 221, 4-([1,4′-bipiperidin]-1′-yl)-3-((4-(heptyloxy)phenyl)sulfonyl)-6-(methylsulfinyl)quinoline] | 100% | 100% | –
9 | CCCCOc1ccc(S(=O)(=O)c2cnc3ccc(OC(F)(F)F)cc3c2N2CCC(N3CCC(O)CC3)CC2)cc1 [compound 152, 1′-(3-((4-butoxyphenyl)sulfonyl)-6-(trifluoromethoxy)quinolin-4-yl)-[1,4′-bipiperidin]-4-ol] | 30% | – | cytotoxicity at 20 µM [1]: 20%
10 | CCc1ccc(S(=O)(=O)c2cnc3ccc(C(=O)O)cc3c2N2CCCN(C)CC2)cc1 [compound 66, 3-((4-ethylphenyl)sulfonyl)-4-(4-methyl-1,4-diazepan-1-yl)quinoline-6-carboxylic acid] | 0% | 10% | –
11 | CCCCN(CCCC)c1c(S(=O)(=O)c2ccc(CC)cc2)cnc2ccc(OC(F)(F)F)cc12 [compound 87, N,N-dibutyl-3-((4-ethylphenyl)sulfonyl)-6-(trifluoromethoxy)quinolin-4-amine] | 0% | 0% | –
12 | CCCCCCCOc1ccc(S(=O)(=O)c2cnc3ccc([S+](C)[O-])cc3c2N2CCCN(C)CC2)cc1 (stereo not shown) [compound 220, 3-((4-(heptyloxy)phenyl)sulfonyl)-4-(4-methyl-1,4-diazepan-1-yl)-6-(methylsulfinyl)quinoline] | 100% | 100% | –
13 | CCc1ccc(S(=O)(=O)c2cnc3ccc(OC(F)(F)F)cc3c2N(CC)CC)cc1 [compound 81, N,N-diethyl-3-((4-ethylphenyl)sulfonyl)-6-(trifluoromethoxy)quinolin-4-amine] | 0% | 0% | –
14 | CCc1ccc(S(=O)(=O)c2cnc3ccc(OC(F)(F)F)cc3c2N2CCC(N3CCCC3)CC2)cc1 [compound 46, 3-((4-ethylphenyl)sulfonyl)-4-(4-(pyrrolidin-1-yl)piperidin-1-yl)-6-(trifluoromethoxy)quinoline] | 100% | 100% | –
15 | CCOC(=O)c1ccc2ncc(S(=O)(=O)c3ccc(CC)cc3)c(N3CCC(N4CCCCC4)CC3)c2c1 [compound 64, ethyl 4-([1,4′-bipiperidin]-1′-yl)-3-((4-ethylphenyl)sulfonyl)quinoline-6-carboxylate] | 100% | 100% | –
16 | CCCCCCCOc1ccc(S(=O)(=O)c2cnc3ccc([S+](C)[O-])cc3c2N2CCN(C)CC2)cc1 (stereo not shown) [compound 259, 3-((4-(heptyloxy)phenyl)sulfonyl)-4-(4-methylpiperazin-1-yl)-6-(methylsulfinyl)quinoline] | – | – | cytotoxicity at 20 µM [1]: 95%; cytotoxicity at 20 µM [2]: 100%
17 | CCc1ccc(S(=O)(=O)c2cnc3ccc(OC(F)(F)F)cc3c2N(C)Cc2ccccc2)cc1 [compound 49, N-benzyl-3-((4-ethylphenyl)sulfonyl)-N-methyl-6-(trifluoromethoxy)quinolin-4-amine] | 10% | 30% | –
18 | CCOC(=O)c1ccc2ncc(S(=O)(=O)c3ccc(OC)cc3)c(N3CCC(N4CCC(O)CC4)CC3)c2c1 [compound 138, ethyl 4-(4-hydroxy-[1,4′-bipiperidin]-1′-yl)-3-((4-methoxyphenyl)sulfonyl)quinoline-6-carboxylate] | 20% | – | –
19 | COc1ccc(S(=O)(=O)c2cnc3ccc(OC(F)(F)F)cc3c2N2CCC(O)(c3cccc(OC)c3)CC2)cc1 [compound 150, 4-(3-methoxyphenyl)-1-(3-((4-methoxyphenyl)sulfonyl)-6-(trifluoromethoxy)quinolin-4-yl)piperidin-4-ol] | 10% | – | –
20 | CCOC(=O)c1ccc2ncc(S(=O)(=O)c3ccc(CC)cc3)c(N3CCCN(CCN(CC)CC)CC3)c2c1 [compound 131, ethyl 4-(4-(2-(diethylamino)ethyl)-1,4-diazepan-1-yl)-3-((4-ethylphenyl)sulfonyl)quinoline-6-carboxylate] | 50% | – | –
21 | CCOC(=O)c1ccc2ncc(S(=O)(=O)c3ccc(OC)cc3)c(N3CCCN(CCN(CC)CC)CC3)c2c1 [compound 139, ethyl 4-(4-(2-(diethylamino)ethyl)-1,4-diazepan-1-yl)-3-((4-methoxyphenyl)sulfonyl)quinoline-6-carboxylate] | 40% | – | –
22 | CCOC(=O)c1ccc2ncc(S(=O)(=O)c3ccc(CC)cc3)c(N3CCC(O)(c4ccc(OC)cc4)CC3)c2c1 [compound 148, ethyl 3-((4-ethylphenyl)sulfonyl)-4-(4-hydroxy-4-(4-methoxyphenyl)piperidin-1-yl)quinoline-6-carboxylate] | 0% | – | –
23 | CCOC(=O)c1ccc2ncc(S(=O)(=O)c3ccc(CC)cc3)c(N3CCC(O)(c4cccc(OC)c4)CC3)c2c1 [compound 149, ethyl 3-((4-ethylphenyl)sulfonyl)-4-(4-hydroxy-4-(3-methoxyphenyl)piperidin-1-yl)quinoline-6-carboxylate] | 20% | – | –
